Experimental data as given in patent US20230295201A1 (Gilead Sciences, Inc., priority 2020, published 2023).
Read-outs that look alike come from different tables or passages of the source.

Tests used:
Format in all cases: cell-based
[1] = system: RSV strain A2; assay: RSV HEp-2 EC50 (infectious cytopathic cell protection assay); conditions: read-out: RSV HEp-2 EC50
How it was run: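 HEp-2 cells mixed with titered RSV A2 at 50,000 cells/ml were added to plates holding 3-fold serial compound dilutions in DMSO, then incubated 4 days at 37° C. Cytoprotection was read as cell viability by CellTiter-Glo luminescence and converted to percent inhibition against 0% and 100% inhibition controls.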

[2] = system: RSV A2; assay: RSV NHBE EC50 (RSV A2 antiviral assay in normal human bronchial epithelial cells); conditions: read-out: RSV NHBE EC50
[3] = system: HRV16; assay: HRV16 HELA EC50 (cytopathic effect in H1-HeLa cells)
How it was run: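 H1-HeLa cells seeded one day before, given 3-fold serial compound dilutions in triplicate just prior to infection with pre-titrated virus. Incubated 96 h at 33 °C/5% CO2; protection from cytopathic effect read as viability by CellTiter-Glo luminescence, normalised to infected untreated (0%) and uninfected (100%) controls.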

[4] = system: DENV2 replicon; assay: DENV-2 Huh-7 Rep EC50 (replicon luminescence); conditions: read-out: DENV-2 Huh-7 Rep EC50
How it was run: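 Huh-7 cells carrying a DENV2 replicon, 5,000 cells/well, were incubated with dosed compounds for 48 h at 37° C. EnduRen live-cell substrate was added 1.5 h before luminescence reading. EC50 came from dose-response against DMSO-only wells.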

[5] = human respiratory syncytial virus, 96 h, HEp-2 cells, RSV A2, 4 days
[6] = human respiratory syncytial virus, 96 h, NHBE cells, RSV A2, 4 days
[7] = H1-HeLa cells, 96 h, 33° C.; read-out: HRV16 HELA EC50
[8] = Dengue virus, DENV2, Huh-7, 48 h
[9] = human respiratory syncytial virus, HEp-2, 96 h, HEp-2 cells, RSV A2, 4 days
[10] = human respiratory syncytial virus, NHBE, 96 h, NHBE cells, RSV A2, 4 days
[11] = 96 h, H1-HeLa cells, 33° C., read-out: HRV16 HELA EC50
[12] = Dengue virus, DENV2, Huh-7, 48 h, Huh-7 replicon cells, 48 hours

SMILES	EC50 [3, 7] [µM]	EC50 [4, 8] [µM]	EC50 [1, 9] [nM]	EC50 [2, 10] [nM]	EC50 [3, 11] [µM]	EC50 [4, 12] [µM]	other results
C[C@H](NP(=O)(OCC(F)(F)F)OC[C@@]1(C#N)O[C@@H](c2ccc3c(N)ncnn23)[C@H](O)[C@@H]1O)C(=O)OC1CCCCC1 (stereo partly drawn) [Example 201, cyclohexyl ((((2R,3S,4R,5S)-5-(4-aminopyrrolo[2,1-f][1,2,4]triazin-7-yl)-2-cyano-3,4-dihydroxytetrahydrofuran-2-yl)methoxy)(2,2,2-trifluoroethoxy)phosphoryl)-L-alaninate]	10.3	> 50					EC50 [1, 5]: 2520 nM; EC50 [2, 6]: 3100 nM
C[C@H](NP(=O)(OC[C@@]1(C#N)O[C@@H](c2ccc3c(N)ncnn23)[C@H](O)[C@@H]1O)Oc1ccccc1)C(=O)OC1CCCN(CC(F)(F)F)CC1 (stereo partly drawn) [Example 204, 1-(2,2,2-trifluoroethyl)azepan-4-yl ((((2R,3S,4R,5S)-5-(4-aminopyrrolo[2,1-f][1,2,4]triazin-7-yl)-2-cyano-3,4-dihydroxytetrahydrofuran-2-yl)methoxy)(phenoxy)phosphoryl)alaninate]			463	628	1.38	27.5	
CC(C)(C)C(=O)OCCNP(=O)(NCCOC(=O)C(C)(C)C)OC[C@@]1(C#N)O[C@@H](c2ccc3c(N)ncnn23)[C@H](O)[C@@H]1O [Example 208]		> 50	> 32800	> 4220	> 50		
CCOC(=O)c1ccccc1OP(=O)(OC[C@@]1(C#N)O[C@@H](c2ccc3c(N)ncnn23)[C@H](O)[C@@H]1O)Oc1ccccc1C(=O)OCC [Example 209, ((2R,3S,4R,5S)-5-(4-aminopyrrolo[2,1-f][1,2,4]triazin-7-yl)-2-cyano-3,4-dihydroxytetrahydrofuran-2-yl)methyl bis-2-ethylbenzoate phosphate]		> 50					EC50 ([1]; human respiratory syncytial virus, HEp-2, 96 h): 1460 nM; EC50 ([2]; human respiratory syncytial virus, NHBE, 96 h): > 5000 nM; EC50 ([3]; 96 h, read-out: HRV16 HELA EC50): 16.7 µM
C[C@H](NP(=O)(OC[C@@]1(C#N)O[C@@H](c2ccc3c(N)ncnn23)[C@H](O)[C@@H]1O)Oc1ccccc1)C(=O)OC[C@H]1CC[C@H](N)CC1 (stereo partly drawn) [Example 210, ((1r,4S)-4-aminocyclohexyl)methyl ((((2R,3S,4R,5S)-5-(4-aminopyrrolo[2,1-f][1,2,4]triazin-7-yl)-2-cyano-3,4-dihydroxytetrahydrofuran-2-yl)methoxy)(phenoxy)phosphoryl)-L-alaninate]			1780	3020	27.9	> 50	
CCCCCCCC(=O)Nc1ncnn2c([C@@H]3O[C@](C#N)(CO[P@@](=O)(N[C@@H](C)C(=O)OC4CCCCC4)Oc4ccccc4)[C@@H](O)[C@H]3O)ccc12 [Example 212, Cyclohexyl ((S)-(((2R,3S,4R,5S)-2-cyano-3,4-dihydroxy-5-(4-octanamidopyrrolo[2,1-f][1,2,4]triazin-7-yl)tetrahydrofuran-2-yl)methoxy)(phenoxy)phosphoryl)-L-alaninate]			133	> 5000	0.67	9.77	
C[C@H](NP(=O)(N[C@@H](C)C(=O)OCC1CC1)OC[C@@]1(C#N)O[C@@H](c2ccc3c(N)ncnn23)[C@H](O)[C@@H]1O)C(=O)OCC1CC1 [Example 214, ((2R,3S,4R,5S)-5-(4-aminopyrrolo[2,1-f][1,2,4]triazin-7-yl)-2-cyano-3,4-dihydroxytetrahydrofuran-2-yl)methyl bis-cyclopropylmethyl L-alaninate phosphate]	25.8	> 50					EC50 [1, 5]: 2940 nM; EC50 [2, 6]: 551 nM
CCCCCOC(=O)C[C@H](NP(=O)(OC[C@@]1(C#N)O[C@@H](c2ccc3c(N)ncnn23)[C@H](O)[C@@H]1O)Oc1ccccc1)C(=O)OCCCCC (stereo partly drawn) [Example 215, Dipentyl ((((2R,3S,4R,5S)-5-(4-aminopyrrolo[2,1-f][1,2,4]triazin-7-yl)-2-cyano-3,4-dihydroxytetrahydrofuran-2-yl)methoxy)(phenoxy)phosphoryl)-L-aspartate]			1100	> 3000	3.39	44.3	
CCCCCOC(=O)C[C@H](N[P@@](=O)(OC[C@@]1(C#N)O[C@@H](c2ccc3c(N)ncnn23)[C@H](O)[C@@H]1O)Oc1ccccc1)C(=O)OCCCCC [Example 216]	32.8						EC50 ([1]; HEp-2 cells, RSV A2, 4 days): 4230 nM; EC50 ([2]; NHBE cells, RSV A2, 4 days): > 4390 nM; EC50 ([4]; Huh-7 replicon cells, 48 hours): 33 µM
CCCCCOC(=O)C[C@H](N[P@](=O)(OC[C@@]1(C#N)O[C@@H](c2ccc3c(N)ncnn23)[C@H](O)[C@@H]1O)Oc1ccccc1)C(=O)OCCCCC [Example 217]	4.66						EC50 ([1]; HEp-2 cells, RSV A2, 4 days): 1010 nM; EC50 ([2]; NHBE cells, RSV A2, 4 days): > 3510 nM; EC50 ([4]; Huh-7 replicon cells, 48 hours): 38 µM
CCCCOC(=O)[C@H](C)NP(=O)(N[C@@H](C)C(=O)OCCCC)OC[C@@]1(C#N)O[C@@H](c2ccc3c(N)ncnn23)[C@H](O)[C@@H]1O [Example 218]	11.3	> 50					EC50 [1, 5]: 1160 nM; EC50 [2, 6]: 280 nM
C[C@H](NP(=O)(N[C@@H](C)C(=O)OCc1ccccc1)OC[C@@]1(C#N)O[C@@H](c2ccc3c(N)ncnn23)[C@H](O)[C@@H]1O)C(=O)OCc1ccccc1 [Example 219]	6.04	> 50					EC50 [1, 5]: 1760 nM; EC50 [2, 6]: 178 nM
CCC(CC)COC(=O)[C@H](CC)NP(=O)(N[C@@H](CC)C(=O)OCC(CC)CC)OC[C@@]1(C#N)O[C@@H](c2ccc3c(N)ncnn23)[C@H](O)[C@@H]1O [Example 220]	10.6	29					EC50 [1, 5]: 4260 nM; EC50 [2, 6]: 340 nM
CCCCOC(=O)CC[C@H](NP(=O)(OC[C@@]1(C#N)O[C@@H](c2ccc3c(N)ncnn23)[C@H](O)[C@@H]1O)Oc1ccccc1)C(=O)OC1CCCCC1 (stereo partly drawn) [Example 229, 5-butyl 1-cyclohexyl ((((2R,3S,4R,5S)-5-(4-aminopyrrolo [2,1-f][1,2,4]triazin-7-yl)-2-cyano-3,4-dihydroxytetrahydrofuran-2-yl)methoxy)(phenoxy)phosphoryl)-L-glutamate]			> 13300	> 5000	> 40.2	31.4	
CCCC(=O)Nc1ncnn2c([C@@H]3O[C@](C#N)(CO[P@@](=O)(N[C@@H](C)C(=O)OC4CCCCC4)Oc4ccccc4)[C@@H](O)[C@H]3O)ccc12 [Example 231, Cyclohexyl ((S)-(((2R,3S,4R,5S)-5-(4-butyramidopyrrolo[2,1-f][1,2,4]triazin-7-yl)-2-cyano-3,4-dihydroxytetrahydrofuran-2-yl)methoxy)(phenoxy)phosphoryl)-L-alaninate]			152	190	1.2	14.7	
CC(C)OC(=O)[C@H](C)N[P@](=O)(OC[C@@]1(C#N)O[C@@H](c2ccc3c(NC(=O)C(C)C)ncnn23)[C@H](O)[C@@H]1O)Oc1ccccc1 [Example 234, isopropyl ((S)-(((2R,3S,4R,5S)-2-cyano-3,4-dihydroxy-5-(4-isobutyramidopyrrolo[2,1-f][1,2,4]triazin-7-yl)tetrahydrofuran-2-yl)methoxy)(phenoxy)phosphoryl)-L-alaninate]			696	2410	6.87	36.4	
CC(C)C(=O)Nc1ncnn2c([C@@H]3O[C@](C#N)(CO[P@@](=O)(N[C@@H](C)C(=O)OC4CCCCC4)Oc4ccccc4)[C@@H](O)[C@H]3O)ccc12 [Example 235, cyclohexyl ((S)-(((2R,3S,4R,5S)-2-cyano-3,4-dihydroxy-5-(4-isobutyramidopyrrolo[2,1-f][1,2,4]triazin-7-yl)tetrahydrofuran-2-yl)methoxy)(phenoxy)phosphoryl)-L-alaninate]			114	510	1.1	3.96	
CC(C)OC(=O)[C@H](C)N[P@](=O)(OC[C@@]1(C#N)O[C@@H](c2ccc3c(N)ncnn23)[C@@H]2OC(=O)O[C@@H]21)Oc1ccccc1 [Example 236, isopropyl ((S)-(((3aS,4R,6S,6aS)-6-(4-aminopyrrolo[2,1-f][1,2,4]triazin-7-yl)-4-cyano-2-oxotetrahydrofuro[3,4-d][1,3]dioxol-4-yl)methoxy) (phenoxy)phosphoryl)-L-alaninate]			189	949	0.741	17.9	
CC(C)[C@H](N)C(=O)Nc1ncnn2c([C@@H]3O[C@](C#N)(CO[P@@](=O)(N[C@@H](C)C(=O)OC4CCCCC4)Oc4ccccc4)[C@@H](O)[C@H]3O)ccc12 [Example 237, cyclohexyl ((S)-(((2R,3S,4R,5S)-5-(4-((S)-2-amino-3-methylbutanamido)pyrrolo[2,1-f][1,2,4]triazin-7-yl)-2-cyano-3,4-dihydroxytetrahydrofuran-2-yl)methoxy)(phenoxy)phosphoryl)-L-alaninate]			> 38400	> 10800	> 50	> 50	
